Experiment [1] deals with Lysine-specific histone demethylase 1A (Homo sapiens) (UniProt O60341). In words: Inhibition of LSD1 (unknown origin) demethylase-mediated FAD-dependent H2O2 production at 1 uM by fluorescence coupling enzyme assay.
Experiment [2] concerns the target T1, Histone deacetylase (Homo sapiens) (UniProt Q13547+O15379+Q9UBN7+Q92769+Q9UQL6+Q8WUI4+Q9BY41+Q96DB2+P56524+Q9UKV0+Q969S8). In kind it is cell-based. The note with it: HCT-116, dose 0.063-1 µM, time 48.0 hrs.
Experiment [3] deals with T1, Histone deacetylase (Homo sapiens). In kind it is cell-based. The following applies: HCT-116, dose 0.063-1 µM, time 48.0 hrs. This is another data set of the same source.
Experiment [4] deals with Lysine-specific histone demethylase 1A (Homo sapiens) (UniProt O60341). In kind it is cell-based. The note with it: HCT-116, dose 0.063-1 µM, time 48.0 hrs.
Experiment [5] has the same target. In kind it is tissue-based. The note with it: Colorectal cancer organoid, dose 0.313-5 µM, time 10.0 day.
The target in experiment [6] is T1, Histone deacetylase (Homo sapiens). In words: Inhibition of HDAC in patient-derived human Colorectal cancer organoid assessed as increase in acetyl-tubulin level at 0.313 to 5 uM treated for 10 days by Western blot analysis. The following applies: dose 0.313-5 µM, time 10.0 day. In kind it is tissue-based. (In general: In western blotting, separated proteins are transferred to a membrane and probed.)

For experiment [7] the target is unchanged. Briefly: Inhibition of HDAC in patient-derived human Colorectal cancer organoid assessed as increase in acetyl-histone H3 level at 0.313 to 5 uM treated for 10 days by Western blot analysis. In kind it is tissue-based. The following applies: dose 0.313-5 µM, time 10.0 day.
The target of experiment [8] is Lysine-specific histone demethylase 1A (Homo sapiens) (UniProt O60341). It counts as tissue-based. The following applies: Colorectal cancer organoid, dose > 2.5 µM, time 10.0 day.
Experiment [9] has the same target. Briefly: Inhibition of LSD1 in patient-derived human Colorectal cancer organoid at >2.5 uM treated for 10 days by IHC analysis. In kind it is tissue-based. The note with it: time 10.0 day.

The source made the active and inactive calls. No cut-off for these calls is given here.

For `O=C(/C=C/c1cccc(S(=O)(=O)N[C@@H]2C[C@H]2c2ccccc2)c1)NO`, the inhibition entry in experiment [1] was “Active; More Effective Than Standard Lsd1 Inhibitor At All Concentrations Tested”; in [2] it was “Dose-dependent-effect”; in [3], “Dose-dependent-effect”. The inhibition entry in experiment [4], in experiment [5], in experiment [6], in experiment [7], in experiment [8] and in experiment [9] was “Active” throughout.

On to `O=C(CCCCCCC(=O)Nc1ccccc1)NO`, for which, in [4], the inhibition result is “Active; Compound Might Have Indirect Lsd1 Inhibitory Effect”.

The values are drawn from ChEMBL document CHEMBL6120959.
